Experimental data published in ChEMBL document CHEMBL1126210, “Conformationally restricted peptide isosteres. 2.1 Synthesis and in vitro potency of dipeptide renin inhibitors employing a 2-alkylsulfonyl-3-phenylcyclopropane carboxamide as a P3 amino acid replacement” (Bioorg Med Chem Lett, 1992).
pIC50: −log10 of the molar value.

Legend:
Renin [1] = target: T1, Renin (Homo sapiens, UniProt P00797); assay: In vitro inhibition of human plasma renin at PH 7.4
T1 sequence (P00797 whole entry): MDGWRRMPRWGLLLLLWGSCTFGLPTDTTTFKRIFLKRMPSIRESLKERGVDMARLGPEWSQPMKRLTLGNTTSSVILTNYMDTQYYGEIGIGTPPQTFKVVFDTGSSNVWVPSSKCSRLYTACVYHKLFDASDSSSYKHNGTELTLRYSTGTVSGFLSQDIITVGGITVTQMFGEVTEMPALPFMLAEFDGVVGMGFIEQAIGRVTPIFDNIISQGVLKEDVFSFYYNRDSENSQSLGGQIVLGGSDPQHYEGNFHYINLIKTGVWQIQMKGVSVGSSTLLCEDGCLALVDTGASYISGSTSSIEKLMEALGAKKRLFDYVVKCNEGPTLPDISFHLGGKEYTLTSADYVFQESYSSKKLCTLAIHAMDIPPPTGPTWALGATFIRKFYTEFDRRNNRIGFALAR

Renin [2] = target: T1, Renin; assay: In vitro inhibition of purified human renin at PH 6.0

pIC50 (Renin [1]) | pIC50 (Renin [2]) | SMILES
7.70 | 9.15 | CC(C)C[C@H](O)[C@H](O)[C@H](CC1CCCCC1)NC(=O)[C@H](Cc1cscn1)NC(=O)[C@H]1[C@H](CC(=O)N2CCOCC2)[C@@H]1c1ccccc1
9.06 | – | CC(C)C[C@H](O)[C@H](O)[C@H](CC1CCCCC1)NC(=O)[C@H](Cc1cscn1)NC(=O)[C@H](Cc1ccccc1)CS(=O)(=O)C(C)(C)C
7.82 | 9.10 | CC(C)C[C@H](O)[C@H](O)[C@H](CC1CCCCC1)NC(=O)[C@H](Cc1cscn1)NC(=O)[C@@H]1[C@@H](C2CCCCC2)[C@H]1S(=O)(=O)C(C)C
7.07 | 8.15 | CC(C)C[C@H](O)[C@H](O)[C@H](CC1CCCCC1)NC(=O)[C@H](Cc1cscn1)NC(=O)[C@H]1[C@H](c2ccccc2)[C@@H]1S(=O)(=O)C(C)C
7.57 | 8.14 | C=CS(=O)(=O)[C@@H]1[C@@H](C(=O)N[C@@H](Cc2cscn2)C(=O)N[C@@H](CC2CCCCC2)[C@@H](O)[C@@H](O)CC(C)C)[C@@H]1c1ccccc1
8.85 | – | CC(C)C[C@H](O)[C@H](O)[C@H](CC1CCCCC1)NC(=O)[C@H](Cc1cscn1)NC(=O)[C@H](Cc1ccccc1)CS(=O)(=O)N1CCOCC1
7.54 | 8.92 | CC(C)C[C@H](O)[C@H](O)[C@H](CC1CCCCC1)NC(=O)[C@H](Cc1cscn1)NC(=O)[C@@H]1[C@@H](c2ccccc2)[C@H]1S(=O)(=O)c1ccccc1
– | 7.85 | CC(C)C[C@H](O)[C@H](O)[C@H](CC1CCCCC1)NC(=O)[C@H](Cc1cscn1)NC(=O)[C@H]1[C@H](C2CCCCC2)[C@@H]1S(=O)(=O)C(C)C
6.43 | 8.36 | CC(C)C[C@H](NC(=O)[C@H]1[C@H](c2ccccc2)[C@@H]1S(=O)(=O)C(C)C)C(=O)N[C@@H](CC1CCCCC1)[C@@H](O)[C@@H](O)CC(C)C
7.89 | 9.43 | CCCC[C@H](NC(=O)[C@@H]1[C@@H](c2ccccc2)[C@H]1S(=O)(=O)C(C)C)C(=O)N[C@@H](CC1CCCCC1)[C@@H](O)[C@@H](O)CC(C)C
7.64 | 9.20 | CC(C)C[C@H](O)[C@H](O)[C@H](CC1CCCCC1)NC(=O)[C@H](Cc1cscn1)NC(=O)[C@@H]1[C@@H](c2ccccc2)[C@H]1S(C)(=O)=O
7.82 | 8.60 | CC(C)C[C@H](O)[C@H](O)[C@H](CC1CCCCC1)NC(=O)[C@H](Cn1ccnc1)NC(=O)[C@H]1[C@H](c2ccccc2)[C@@H]1S(=O)(=O)C(C)C
8.10 | 9.42 | CC(C)C[C@H](O)[C@H](O)[C@H](CC1CCCCC1)NC(=O)[C@H](Cc1cscn1)NC(=O)[C@@H]1[C@@H](c2ccccc2)[C@H]1S(=O)(=O)C(C)C
7.80 | 9.32 | COCOCCS(=O)(=O)[C@H]1[C@H](C(=O)N[C@@H](Cc2cscn2)C(=O)N[C@@H](CC2CCCCC2)[C@@H](O)[C@@H](O)CC(C)C)[C@H]1c1ccccc1
7.48 | 9.00 | COCOCCS(=O)(=O)[C@@H]1[C@@H](C(=O)N[C@@H](Cc2cscn2)C(=O)N[C@@H](CC2CCCCC2)[C@@H](O)[C@@H](O)CC(C)C)[C@@H]1c1ccccc1
7.77 | 9.20 | C=CS(=O)(=O)[C@H]1[C@H](C(=O)N[C@@H](Cc2cscn2)C(=O)N[C@@H](CC2CCCCC2)[C@@H](O)[C@@H](O)CC(C)C)[C@H]1c1ccccc1
7.74 | 9.11 | CO[C@@H](CC(C)C)[C@H](O)[C@H](CC1CCCCC1)NC(=O)[C@H](Cc1cscn1)NC(=O)C(Cc1ccccc1)CS(=O)(=O)c1ccccc1 (stereo partly drawn)
8.24 | 8.85 | CC(C)C[C@H](O)[C@H](O)[C@H](CC1CCCCC1)NC(=O)[C@H](Cn1ccnc1)NC(=O)[C@@H]1[C@@H](c2ccccc2)[C@H]1S(=O)(=O)C(C)C
7.85 | 9.23 | CC(C)C[C@H](NC(=O)[C@@H]1[C@@H](c2ccccc2)[C@H]1S(=O)(=O)C(C)C)C(=O)N[C@@H](CC1CCCCC1)[C@@H](O)[C@@H](O)CC(C)C
– | 7.64 | CC(C)C[C@H](O)[C@H](O)[C@H](CC1CCCCC1)NC(=O)[C@H](Cc1cscn1)NC(=O)[C@H]1[C@H](c2ccccc2)[C@@H]1S(C)(=O)=O
6.80 | 8.72 | CCCC[C@H](NC(=O)[C@H]1[C@H](c2ccccc2)[C@@H]1S(=O)(=O)C(C)C)C(=O)N[C@@H](CC1CCCCC1)[C@@H](O)[C@@H](O)CC(C)C
